In PubChem BioAssay AID1918957 (Molecular Pharmacology Branch, DTP, NCI, 2023) one finds viability, T/C and IC50 data, which are given here for nine compounds.

Where “and” joins values, the source holds several entries; their conditions need not be identical. Equal values may be shown once.

For this test, the system named is NCI-H1876 complex spheroid viability. Kind of test: Anticancer human tumor NCI-H1876 cell line growth inhibition [LSD1].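 For all read-outs here: spheroids exposed to compounds for one week before readout.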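 For viability, T/C: 100% = DMSO vehicle-treated spheroids so lower means fewer viable cells.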 The settings on record: for viability, T/C: stronger effect = lower value; for IC50: curve of compound. From the text:
Multicellular complex tumor spheroid response to LSD1 Inhibitor Iadademstat in combination with a variety of drugs and investigational agents in selected tumor cell lines
The current study was undertaken to assess response to LSD1 inhibitors in combination with standard-of-care drugs and investigational agents in solid tumor complex spheroid models as well as in the K-562 leukemia. Complex spheroids include a stromal component modeled by human endothelial cells (HUVEC) and fibroblasts modeled by human mesenchymal stem cells (MSCs). The concentration ranges selected for each drug and investigational agent were based upon clinically achievable concentrations if the clinical Cmax of the agent was known.
Compounds. The drugs and investigational agents used in this study are listed on Table 1. All of the agents used, including staurosporine (NSC755774) and gemcitabine (NSC613327), were obtained from the Developmental Therapeutics Program, NCI. FDA-approved anticancer drugs are available from the NCI at http://dtp.nci.nih.gov/branches/dscb/oncology_drugset_explanation.html. Drugs and investigational agents were >95% pure by proton nuclear magnetic resonance (NMR) and liquid chromatography/mass spectrometry (LC/MS). Stock solutions were prepared at 400x in DMSO, stored at -70 degrees C, and diluted in fresh medium prior to their use. The final concentration of DMSO in cell culture wells never exceeded 0.25% (v/v). The FDA-approved anticancer drug set is available from the Developmental Therapeutics Program at https://dtp.cancer.gov/organization/dscb/obtaining/available_plates.htm. All drugs and investigational agents were tested over a range starting from a high concentration at or near the clinical Cmax and decreasing in half-log increments. If the clinical Cmax for an agent had not been determined, the highest concentration tested was 10 microM.
Cell Lines. The patient-derived cancer cell (PDC) lines: 292921-168-R-J2-PDC, K24384-001-R-PDC, and 521955-158-R2-J5-PDC pancreatic carcinomas, 556581-035-R-J1 ovarian carcinoma, 324938-238-R-J1-PDC, 855422-203-R-J1-PDC and 883617-216-R-J1-PDC urothelial bladder carcinomas, 743489-274-T-PDC renal cell carcinoma, 138582-R-J1 Merkel cell tumor, K60290-347-R-J1 and K57222-313-R-J1-PDC glioblastomas, 653999-131-R-J2-PDC, LG0703-F948-PDC, and 349418-098-R-PDC non-small cell lung carcinomas, 885512-296-R-J2-PDC, 171881-019-R-J1-PDC breast carcinomas and 186277-243-T-J2-PDC and 233499-124-R-J2-PDC colon carcinomas were obtained from the NCI Patient-Derived Models Repository (PDMR, https://pdmr.cancer.gov). The established cell lines NCI/ADR-RES (RRID:CVCL_14520 and OVCAR-5 (RRID:CVCL_1628) ovarian carcinomas, 786-O (RRID:CVCL_1051) and A498 (RRID:CVCL_A498) renal cell carcinoma, NCI-H211 (ATCC, cat. CRL-5824; RRID:CVCL_1529), NCI-H196 (ATCC, cat. CRL-5823, RRID:CVCL_1509), SW 1271 (ATCC, cat. CRL-2177, RRID:CVCL_1716) and NCI-H1876 (ATCC, cat. CRL-5902, RRID:CVCL_1503) small cell lung carcinomas, MDA-MB-231 (RRID:CVCL_0062) and MDA-MB-468 (RRID:CVCL_0419)breast carcinomas (10-12). Pooled donor human umbilical vein endothelial cells (HUVEC, Lonza, cat. CC-2519) and human mesenchymal stem cells (hMSC, Lonza, cat. PT-2501) were purchased from Lonza (Walkersville, MD).
Cell Culture. All cells were maintained in an incubator at 37 degrees C and 5% CO2 with 95% humidity. The PDC lines were cultured according to standard operating procedures established by the NCI PDMR (https://pdmr.cancer.gov). Briefly all PDCs were thawed and cultured in Matrigel-coated flasks prepared with a working solution of 1X Ham's F-12 nutrient mix, without supplementation (Invitrogen, Waltham, MA, cat. 11765054), 100 U/mL penicillin-streptomycin (Invitrogen, cat. 15140122), and 2.5% Matrigel (Corning Inc., Corning, NY, cat. 354248) for the first three passages. […]

By viability, T/C is commonly meant the result in the treated group divided by that in the control group, in per cent. Broadly, the IC50 is the concentration needed to halve the response being measured.

`CC(C)CC(NC(=O)C(Cc1ccccc1)NC(=O)c1cnccn1)B(O)O` (stereo not drawn): the IC50 was 0.56 nM and 0.462 nM. Moreover, the viability, T/C (compound 0.000316 µM) was 84% and 74.3%. Also, the viability, T/C (compound 0.001 µM) is 15.6% and 0.43%. The viability, T/C (compound 0.00316 µM) is 8.34% and 0.27%. The viability, T/C (compound 0.01 µM) is 17.3% and 0.26%. Under “compound 0.0316 µM”, the viability, T/C was 7.7% and 0.24%. In addition, for the setting “compound 0.1 µM”, the viability, T/C is 13.9% and 0.31%.
Consider `CC(C)CC(NC(=O)CNC(=O)c1cc(Cl)ccc1Cl)B1OC(=O)CC(CC(=O)O)(C(=O)O)O1` (stereo not drawn), for which the concentration for half-maximal inhibition (IC50) is 10.3 nM and 7.69 nM. Moreover, the viability, T/C (compound 0.000316 µM) was 102% and 97.5%. Moreover, the viability, T/C (compound 0.001 µM) was 98.9% and 91.9%. Also, where the note is “compound 0.00316 µM”, the viability, T/C was 90.3% and 96%. Where the note is “compound 0.01 µM”, the viability, T/C was 52.4% and 36.7%. Moreover, under “compound 0.0316 µM”, the viability, T/C is 7.69% and 2.11%. For the same compound, for the setting “compound 0.1 µM”, the viability, T/C was 15.7% and 0.34%.
Consider `CC1(C)CCC(CN2CCN(c3ccc(C(=O)NS(=O)(=O)c4ccc(NCC5CCOCC5)c([N+](=O)[O-])c4)c(Oc4cnc5[nH]ccc5c4)c3)CC2)=C(c2ccc(Cl)cc2)C1`, for which the IC50 is 2270 nM and 2070 nM. Besides, the viability, T/C (compound 0.0316 µM) was 101% and 99.5%. Further, the viability, T/C (compound 0.1 µM) was 101% and 94.4%. In addition, the viability, T/C (compound 0.316 µM) is 101% and 110%. The viability, T/C (compound 1 µM) was 95.4% and 107%. For the same compound, under “compound 3.16 µM”, the viability, T/C was 31.8% and 19.4%. The viability, T/C (compound 10 µM) is 9.13% and 6.87%.
Regarding `CC1COCCN1c1cc(-c2ccnn2C)c2ccnc(-c3ccn[nH]3)c2n1` (stereo not drawn), the IC50 was 14.6 nM and < 3.16 nM. Moreover, the viability, T/C (compound 0.00316 µM) was 64.3% and 45%. For the same compound, the viability, T/C (compound 0.01 µM) was 59.2% and 33.4%. The viability, T/C (compound 0.0316 µM) is 32.8% and 13.7%. For the same compound, the viability, T/C (compound 0.1 µM) is 19.8% and 4.72%. Besides, the viability, T/C (compound 0.316 µM) was 10% and 3.12%. Moreover, the viability, T/C (compound 1 µM) is 12.8% and 4.1%.
Take `CCN(c1cc(-c2ccc(CN3CCOCC3)cc2)cc(C(=O)NCc2c(C)cc(C)[nH]c2=O)c1C)C1CCOCC1`: the IC50 is more than 3000 nM. Besides, the viability, T/C (compound 0.00949 µM) was 104% and 108%. The viability, T/C (compound 0.03 µM) is 97.2% and 107%. Besides, the viability, T/C (compound 0.0949 µM) is 104% and 96.1%. Moreover, where the note is “compound 0.3 µM”, the viability, T/C is 101% and 96.2%. Besides, where the note is “compound 0.949 µM”, the viability, T/C is 82.7% and 79.5%. Also, where the note is “compound 3 µM”, the viability, T/C is 55.7% and 54.8%.
Regarding `CC[C@@]1(O)C(=O)OCc2c1cc1n(c2=O)Cc2cc3c(CN(C)C)c(O)ccc3nc2-1`, the half-inhibitory concentration (IC50) was 2.22 nM and 1.71 nM. Besides, the viability, T/C (compound 0.000316 µM) is 94% and 106%. Where the note is “compound 0.001 µM”, the viability, T/C was 86.2% and 81.2%. The viability, T/C (compound 0.00316 µM) is 33.5% and 14.2%. For the same compound, the viability, T/C (compound 0.01 µM) was 27.7% and 10.6%. Moreover, the viability, T/C (compound 0.0316 µM) is 19.8% and 6.98%. The viability, T/C (compound 0.1 µM) is 15.5% and 4.68%.
For the compound `CCc1c2c(nc3ccc(O)cc13)-c1cc3c(c(=O)n1C2)COC(=O)[C@]3(O)CC`, the IC50 is less than 0.949 nM. Where the note is “compound 0.000949 µM”, the viability, T/C was 8.16% and 5.21%. Moreover, where the note is “compound 0.003 µM”, the viability, T/C was 6.7% and 3.21%. Moreover, the viability, T/C (compound 0.00949 µM) is 3.77% and 1.73%. In addition, the viability, T/C (compound 0.03 µM) was 0.82% and 0.45%. For the same compound, the viability, T/C (compound 0.0949 µM) is 0.56% and 0.42%. For the setting “compound 0.3 µM”, the viability, T/C was 0.51% and 0.41%.
Turning to `COc1cc(C2c3cc4c(cc3C(OC3OC5COC(C)OC5C(O)C3O)C3COC(=O)C23)OCO4)cc(OC)c1O` (stereo not drawn), the IC50 was 54 nM and 37.8 nM. The viability, T/C (compound 0.00949 µM) was 85.4% and 93.8%. Moreover, the viability, T/C (compound 0.03 µM) is 69.1% and 57.3%. The viability, T/C (compound 0.0949 µM) was 30.5% and 20.9%. Also, where the note is “compound 0.3 µM”, the viability, T/C was 32.1% and 11.1%. For the setting “compound 0.949 µM”, the viability, T/C is 26.4% and 8.9%. For the same compound, the viability, T/C (compound 3 µM) is 11.7% and 9%.
Regarding `COc1cc(Nc2ncc3c(n2)-c2ccc(Cl)cc2C(c2c(F)cccc2OC)=NC3)ccc1C(=O)O`, the IC50 is 22.5 nM and 33.2 nM. Also, the viability, T/C (compound 0.00316 µM) is 66.5% and 69.5%. Further, the viability, T/C (compound 0.01 µM) is 54% and 64.2%. Besides, the viability, T/C (compound 0.0316 µM) was 45.4% and 48.2%. The viability, T/C (compound 0.1 µM) is 42.4% and 38.4%. In addition, the viability, T/C (compound 0.316 µM) is 37.3% and 31.5%. Besides, the viability, T/C (compound 1 µM) was 28.3% and 19.5%.
